Here are results for four compounds from patent publication US11197933B2, “Polysubunit opioid prodrugs resistant to overdose and abuse” (Elysium Therapeutics, Inc., priority 2017, dated 2021).

For data set [1] the following is noted: after oral doses; cited from earlier work.
Data set [2] concerns the target T1, trypsin (Bos taurus, UniProt P00760).
T1 construct: gene PRSS1
T1 sequence (P00760 24-246): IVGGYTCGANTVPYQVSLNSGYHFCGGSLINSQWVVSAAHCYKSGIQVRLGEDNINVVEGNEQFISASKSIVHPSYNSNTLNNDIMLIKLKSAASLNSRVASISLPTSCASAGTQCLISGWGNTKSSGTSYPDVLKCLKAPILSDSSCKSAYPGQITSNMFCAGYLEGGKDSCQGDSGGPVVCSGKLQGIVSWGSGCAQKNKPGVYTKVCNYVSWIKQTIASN
The data set is described as follows: Inhibition of trypsin-catalyzed hydrolysis of BANA (percent BANA remaining vs. time). The settings on record: for Ability to inhibit trypsin (result in words): increasing concentrations, BANA substrate. The format is biochemical. Here is the method:
This example describes in vitro experiments with a compound of the disclosure to provide a mechanism of overdose protection.
The effect of increasing concentrations of compounds II-D-11, II-D-23, II-D-71c and II-D-71b on the rate and extent of the trypsin-catalyzed hydrolysis of a commercially available trypsin substrate Nα-Benzoyl-L-arginine 4-nitroanilide hydrochloride (BANA) was evaluated in the presence of trypsin (2,000 BAEE activity) in a pH 7.4 phosphate buffer at 37° C. in vitro. Both buffer solution alone (i.e. no trypsin) and trypsin containing buffer solution (i.e. no test compounds) controls were run contemporaneously.

The target in data set [3] is T1, trypsin. The data set is described as follows: Trypsin inhibitory potency (key differentiating attributes, Table 5). It is filed as biochemical. From the text:
(§1) As mentioned previously, a wide range of targeted oral pharmacokinetic profiles can be achieved by administering pharmaceutical compositions containing specific combinations of different polysubunit molecules to subjects. For example, the different polysubunit molecules contained in the composition may differ with regard to (i) the specific opioid agonists delivered, (ii) the rates at which the opioid agonist is delivered in vivo (i.e. to modify the oral pharmacokinetic profile of the delivered opioid), and (iii) the combined inhibitory potency of the GI enzyme inhibiting subunits [i.e. to modify the overdose protection profile and/or the prescribed dose strengths of the delivered opioid agonist(s)]. Table 5 below provides non-limiting examples of compounds of the invention with their key differentiating attributes. Table 6 discusses scenarios and rationales for using the compounds presented in Table 5 in combination with each other, in useful pharmaceutical formulations of the invention.

Data set [4] is described as follows: Rate of release of opioid agonist (key differentiating attributes, Table 5). The note with it: for Rate of Release of Opioid Against: in words (Fast/Slow); for half-life: read-out: Rate of Release of Opioid Against: T1/2.
From the text: as §1

For data set [5] the following is noted: in man; cited from earlier work.

As for `C[C@H]1[C@H]2Cc3ccc(O)cc3[C@]1(C)CCN2CC1CC1` [cyclazocine], in data set [1], the Duration of action is ~24 h.
`COc1ccc2c3c1O[C@H]1C(OC(=O)N4CCC(C(=O)NCCCC[C@H](NC(=O)OCc5ccccc5)C(=O)NCCOc5ccc(C(=O)Oc6ccc(NC(=N)N)cc6)cc5)CC4CNC(=O)[C@@H](CCCNC(=N)N)NC(=O)CNC(C)=O)=CC[C@H]4[C@@H](C2)N(C)CC[C@]314` (stereo partly drawn) [II-D-71c]: the “Percent BANA remaining” value on trypsin [2] (1 uM compound, 2 minutes, pH 7.4, 37° C.) was determined as 81.5%; at trypsin [2] (1 uM compound, 13 minutes, pH 7.4, 37° C.), 0%; on trypsin [2] (1 uM compound, 24 minutes, pH 7.4, 37° C.), 0%; at trypsin [2] (1 uM compound, 35 minutes, pH 7.4, 37° C.), 0%; on trypsin [2] (1 uM compound, 46 minutes, pH 7.4, 37° C.) it was 0%; on trypsin [2] (1 uM compound, 57 minutes, pH 7.4, 37° C.), 0%. In addition, the “Percent BANA remaining” value on trypsin [2] (1 uM compound, 68 minutes, pH 7.4, 37° C.) is listed as 0%; on trypsin [2] (10 uM compound, 2 minutes, pH 7.4, 37° C.), 76.5%; on trypsin [2] (10 uM compound, 13 minutes, pH 7.4, 37° C.) it was 58.5%; on trypsin [2] (10 uM compound, 24 minutes, pH 7.4, 37° C.), 42.5%; at trypsin [2] (10 uM compound, 35 minutes, pH 7.4, 37° C.), 26.0%; on trypsin [2] (10 uM compound, 46 minutes, pH 7.4, 37° C.) it was 13.0%. The “Percent BANA remaining” value on trypsin [2] (10 uM compound, 57 minutes, pH 7.4, 37° C.) turned out to be 4.7%; at trypsin [2] (10 uM compound, 68 minutes, pH 7.4, 37° C.) it was 0%; at trypsin [2] (100 uM compound, 2 minutes, pH 7.4, 37° C.) it was 100%; at trypsin [2] (100 uM compound, 13 minutes, pH 7.4, 37° C.) it was 100%; at trypsin [2] (100 uM compound, 24 minutes, pH 7.4, 37° C.) it was 99%; on trypsin [2] (100 uM compound, 35 minutes, pH 7.4, 37° C.), 100%. Further, the “Percent BANA remaining” value on trypsin [2] (100 uM compound, 46 minutes, pH 7.4, 37° C.) came out at 100%; at trypsin [2] (100 uM compound, 57 minutes, pH 7.4, 37° C.) it was 100%; at trypsin [2] (100 uM compound, 68 minutes, pH 7.4, 37° C.) it was 100%; at trypsin [2] (1 mM compound, 2 minutes, pH 7.4, 37° C.), 100%; on trypsin [2] (1 mM compound, 13 minutes, pH 7.4, 37° C.), 100%; at trypsin [2] (1 mM compound, 24 minutes, pH 7.4, 37° C.), 99%. Further, the “Percent BANA remaining” value turned out to be 100% on trypsin [2] (1 mM compound, 35 minutes, pH 7.4, 37° C.); 100% on trypsin [2] (1 mM compound, 46 minutes, pH 7.4, 37° C.); 100% on trypsin [2] (1 mM compound, 57 minutes, pH 7.4, 37° C.); 100% at trypsin [2] (1 mM compound, 68 minutes, pH 7.4, 37° C.). In addition, the “Ability to inhibit trypsin (result in words)” value on trypsin [2] (pH 7.4, 37° C.) was “progressively inhibit trypsin in a concentration dependent manner”. Also, on trypsin [3], the “Trypsin Inhibitory Potency” value was “High”. Also, the “Rate of Release of Opioid Against” value in data set [4] is given as “Fast”. In addition, in data set [4], the half-life was ~10 min.
On to `O=C1CC[C@@]2(O)[C@H]3Cc4ccc(O)c5c4[C@@]2(CCN3CC2CC2)[C@H]1O5` [naltrexone, Naltrexone], for which, in data set [1], the Duration of action was ~24 h. Further, the Oral bioavailability in data set [5] is 5-40%.
Regarding `COc1ccc2c3c1O[C@H]1C(OC(=O)N4CCC(C(=O)NCCCC[C@H](NC(=O)OCc5ccccc5)C(=O)NCCOc5ccc(C(=O)Oc6cccc(NC(=N)N)c6)cc5)CC4CNC(=O)[C@@H](CCCNC(=N)N)NC(=O)CNC(C)=O)=CC[C@H]4[C@@H](C2)N(C)CC[C@]314` (stereo partly drawn) [II-D-71b], the “Percent BANA remaining” value is 87.9% on trypsin [2] (compound 10 uM, 2 minutes, trypsin 2,000 BAEE activity, pH 7.4 phosphate buffer, 37° C.); 0% at trypsin [2] (compound 10 uM, 13 minutes, trypsin 2,000 BAEE activity, pH 7.4 phosphate buffer, 37° C.); 0% at trypsin [2] (compound 10 uM, 24 minutes, trypsin 2,000 BAEE activity, pH 7.4 phosphate buffer, 37° C.); 0% on trypsin [2] (compound 10 uM, 35 minutes, trypsin 2,000 BAEE activity, pH 7.4 phosphate buffer, 37° C.); 0% at trypsin [2] (compound 10 uM, 46 minutes, trypsin 2,000 BAEE activity, pH 7.4 phosphate buffer, 37° C.); 0% at trypsin [2] (compound 10 uM, 57 minutes, trypsin 2,000 BAEE activity, pH 7.4 phosphate buffer, 37° C.). The “Percent BANA remaining” value on trypsin [2] (compound 10 uM, 68 minutes, trypsin 2,000 BAEE activity, pH 7.4 phosphate buffer, 37° C.) is listed as 0%; at trypsin [2] (compound 100 uM, 2 minutes, trypsin 2,000 BAEE activity, pH 7.4 phosphate buffer, 37° C.), 93.1%; on trypsin [2] (compound 100 uM, 13 minutes, trypsin 2,000 BAEE activity, pH 7.4 phosphate buffer, 37° C.), 15.1%; at trypsin [2] (compound 100 uM, 24 minutes, trypsin 2,000 BAEE activity, pH 7.4 phosphate buffer, 37° C.), 2.4%; at trypsin [2] (compound 100 uM, 35 minutes, trypsin 2,000 BAEE activity, pH 7.4 phosphate buffer, 37° C.), 2.3%; at trypsin [2] (compound 100 uM, 46 minutes, trypsin 2,000 BAEE activity, pH 7.4 phosphate buffer, 37° C.) it was 1.4%. Further, the “Percent BANA remaining” value stood at 0% on trypsin [2] (compound 100 uM, 57 minutes, trypsin 2,000 BAEE activity, pH 7.4 phosphate buffer, 37° C.); 0% on trypsin [2] (compound 100 uM, 68 minutes, trypsin 2,000 BAEE activity, pH 7.4 phosphate buffer, 37° C.); 100% on trypsin [2] (compound 1 mM, 2 minutes, trypsin 2,000 BAEE activity, pH 7.4 phosphate buffer, 37° C.); 76.1% on trypsin [2] (compound 1 mM, 13 minutes, trypsin 2,000 BAEE activity, pH 7.4 phosphate buffer, 37° C.); 66.6% on trypsin [2] (compound 1 mM, 24 minutes, trypsin 2,000 BAEE activity, pH 7.4 phosphate buffer, 37° C.); 59.6% on trypsin [2] (compound 1 mM, 35 minutes, trypsin 2,000 BAEE activity, pH 7.4 phosphate buffer, 37° C.). Moreover, the “Percent BANA remaining” value on trypsin [2] (compound 1 mM, 46 minutes, trypsin 2,000 BAEE activity, pH 7.4 phosphate buffer, 37° C.) is listed as 56.3%; on trypsin [2] (compound 1 mM, 57 minutes, trypsin 2,000 BAEE activity, pH 7.4 phosphate buffer, 37° C.), 55.7%; on trypsin [2] (compound 1 mM, 68 minutes, trypsin 2,000 BAEE activity, pH 7.4 phosphate buffer, 37° C.), 53.7%. Also, the “Ability to inhibit trypsin (result in words)” value on trypsin [2] (pH 7.4, 37° C.) is given as “progressively inhibit trypsin in a concentration dependent manner”. For the same compound, the “Trypsin Inhibitory Potency” value at trypsin [3] was “Low”. Also, the “Rate of Release of Opioid Against” value in data set [4] is given as “Fast”. The half-life in data set [4] is ~10 min.
